The assay relates to human skin. The assay is described as follows: topical administration to a human in need of beautifying. It counts as in vivo. As to conditions: twice daily treatments, after several weeks. The method, then: The chiral, non-racemic analog, (+) deoxyArbutin ((+)-dA), prepared as described in Example I is administered topically to a human in need of beautifying.

Consider `Oc1ccc(OC2CCCCO2)cc1` (racemic) [(+) deoxyArbutin, 4-(tetrahydro-2H-pyran-2-yloxy)phenol], for which the “health and vitality of the treated areas of the skin” value was “increased health and vitality”; the “pigmentation of the treated areas of the skin” value is “decreased pigmentation”.
